Laboratory results: PMC2837848 (Biochemistry, 2010)
Read-outs that look alike come from different tables or passages of the source.

Columns and labels:
[1] = target: QAPRTase (Salmonella typhimurium quinolinic acid phosphoribosyltransferase) (Salmonella enterica, UniProt P30012); experiment: steady-state kinetics; format: biochemical; details: read-out: WT
[2] = target: QAPRTase (Salmonella typhimurium quinolinic acid phosphoribosyltransferase) (Salmonella enterica, UniProt P30012, H189A); experiment: biochemical
[3] = target: QAPRTase (Salmonella typhimurium quinolinic acid phosphoribosyltransferase) (Salmonella enterica, UniProt P30012, R153A); experiment: biochemical

In the case of `O=P(O)(O)OC[C@H]1O[C@H](OP(=O)(O)OP(=O)(O)O)[C@H](O)[C@@H]1O` [PRPP, 5-phosphoribosyl 1-pyrophosphate], the Km ([1]; co-substrate QA) is reported as 57 ± 7 µM, the Kd [2] is reported as 480 ± 75 µM and the Kd [3] is reported as ~1 mM.

For `O=C(O)c1cccnc1C(=O)O` [QA, quinolinic acid], the Km ([1]; co-substrate PRPP) was 27 ± 6 µM.
